Laboratory results: patent US20150250902A1, “pH-RESPONSIVE GADOLINIUM NANOPARTICLE CONJUGATES AND USES THEREOF” (Colorado School of Mines, priority 2014, published 2015)

Assay: In vitro MRI relaxivity of gold/Gd nanoparticles and clinical contrast agents
Text: In vitro MRI of Gadolinium Nanoparticles and Polymer Modified Gadolinium Nanoparticles. In order to provide information about the clinical imaging viability of the polymer modified gold/Gd nanoparticles as a positive contrast agent, in vitro MRI was employed to determine relaxation properties of the unmodified and polymer modified gold/Gd nanoparticles. Table 1 compares the MRI longitudinal and transverse relaxivities, r1 and r2, respectively, of PNIPAM-modified gold/Gd nanoparticles and gold/Gd unmodified nanoparticles to the clinically employed contrasts agents, gadopentetate dimeglumine (Magnevist®) and gadobenate dimeglumine (Multihance®). […] By taking advantage of these properties, novel theragnostic polymer-modified gold/Gd nanoparticles could be produced and exploited as contrast agents for conventional T1 MR imaging.

| Compound | r1 (MRI longitudinal relaxivity) |
| --- | --- |
| CNC[C@H](O)[C@@H](O)[C@H](O)[C@H](O)CO.CNC[C@H](O)[C@@H](O)[C@H](O)[C@H](O)CO.O=C([O-])CN(CCN(CC(=O)[O-])CC(=O)O)CCN(CC(=O)O)C(COCc1ccccc1)C(=O)[O-].[Gd+3] (centres unmarked) [Multihance ®, gadobenate dimeglumine] | 17.7 mM⁻¹ s⁻¹ |
| CNC[C@H](O)[C@@H](O)[C@H](O)[C@H](O)CO.CNC[C@H](O)[C@@H](O)[C@H](O)[C@H](O)CO.O=C([O-])CN(CCN(CC(=O)[O-])CC(=O)O)CCN(CC(=O)[O-])CC(=O)O.[Gd+3] [Magnevist ®, gadopentetate dimeglumine] | 6.95 mM⁻¹ s⁻¹ |
